From US20110150961A1, “ANTI-INFECTIVE CATHETERS” (priority 2008, published 2011)
In brackets after ≈: the same amount, converted by molar mass.

Tests used:
S. aureus ATCC 25923 = assay: MIC and MBC on ATCC control strains (Example 10); format: cell-based
Excerpt: (§1) The Gram-positive organisms tested were S. epidermidis ATCC 12228, S. aureus ATCC 25923, and E. faecalis ATCC 29212. The Gram-negative strains tested were P. aeruginosa ATCC 27853, K. pneumonia ATCC 700603 and E. coli ATCC 25922.

P. aeruginosa ATCC 27853 = assay: MIC and MBC on ATCC control strains (Example 10); format: cell-based
Excerpt: as §1

[1] = system: S. epidermidis ATCC 12228; assay: MIC and MBC on ATCC control strains (Example 10); format: cell-based
Excerpt: as §1

E. faecalis ATCC 29212 = assay: MIC and MBC on ATCC control strains (Example 10); format: cell-based
Excerpt: as §1

K. pneumonia ATCC 700603 = assay: MIC and MBC on ATCC control strains (Example 10); format: cell-based, K. pneumoniae
Excerpt: as §1

K. pneumoniae = assay: Multi-organism zone-of-inhibition screening (Example 15); format: cell-based; conditions: 24 hr, one sample per plate, antibiotic disks 6 mm (Gentamicin 10 μg, penicillin 10 units)
Protocol: (§2) The 5-FU CVC was compared with the commercially available Arrow CVC. Gentamicin (10 μg) or penicillin (10 units) disks were used as positive controls and CVC was used as the negative control. The samples were challenged with 3 species of Gram-positive bacteria, 4 species of Gram-negative bacteria and 1 type of yeast. The organisms used to challenge the samples were the following ATCC strains: S. aureus, Methicillin Resistant Staphylococcus aureus (MRSA), S. epidermidis, K. pneumoniae, and Vancomycin Resistant Pediococcus (VRP), E. coli, P. aeruginosa and C. albicans.
(§3) Organisms were inoculated into 2 mL of liquid agar, which was poured on top of solidified agar. One plate was made per organism. Test articles were inserted into the agar when the plates were solidified and dry. ZOI results were recorded at 24 hr. […] Each plate also contained one negative and one positive control sample and 1 Arrow CVC sample.

[2] = system: Methicillin Resistant Staphylococcus aureus (MRSA); assay: as above; format: cell-based; conditions: 24 hr, one sample per plate, antibiotic disks 6 mm (Gentamicin 10 μg, penicillin 10 units)
Protocol: as §2, §3

E. coli = assay: as above; format: cell-based; conditions: 24 hr, one sample per plate, antibiotic disks 6 mm (Gentamicin 10 μg, penicillin 10 units)
Protocol: as §2, §3

P. aeruginosa = assay: as above; format: cell-based; conditions: 24 hr, one sample per plate, antibiotic disks 6 mm (Gentamicin 10 μg, penicillin 10 units)
Protocol: as §2
Organisms were inoculated into 2 mL of liquid agar, which was poured on top of solidified agar. One plate was made per organism. Test articles were inserted into the agar when the plates were solidified and dry. ZOI results were recorded at 24 hr. Three 0.5-cm sections of the 5-FU CVC were tested on each plate. Each plate also contained one negative and one positive control sample and 1 Arrow CVC sample.

Row | Compound | MBC (S. aureus ATCC 25923) [µg/mL] | MIC (S. aureus ATCC 25923) [µg/mL] | MBC (P. aeruginosa ATCC 27853) [µg/mL] | MIC (P. aeruginosa ATCC 27853) [µg/mL] | MBC [1] [µg/mL] | MIC [1] [µg/mL] | MBC (E. faecalis ATCC 29212) [µg/mL] | MIC (E. faecalis ATCC 29212) [µg/mL] | MBC (K. pneumonia ATCC 700603) [µg/mL] | MIC (K. pneumonia ATCC 700603) [µg/mL] | ZOI (K. pneumoniae) [mm] | ZOI [2] [mm] | ZOI (E. coli) [mm] | ZOI (P. aeruginosa) [mm]
1 | O=c1[nH]c(=O)n([C@H]2C[C@H](O)[C@@H](CO)O2)cc1F [Flox, floxuridine] | 0.14 (≈ 0.569 µM) | <0.05 | >100 | >100 | <0.05 | <0.05 | 11.11 (≈ 45.1 µM) | 3.7 (≈ 15 µM) | 3.7 (≈ 15 µM) | 1.23 (≈ 5 µM) | – | – | – | –
2 | Gentamicin | – | – | – | – | – | – | – | – | – | – | 9.5 | 7.1 | 10.5 | 12.5
